Experimental data as given in patent US5616684A, “Cyclic peptides and use thereof” (priority 1991, dated 1997).
Non-standard residues stand in square brackets, D forms with d. Residues, ends and D or L forms follow the SMILES beside them. *: point of attachment. NMeW = CN[C@@H](Cc1c[nH]c2ccccc12)C(=O)O; NMeF = CN[C@@H](Cc1ccccc1)C(=O)O; dTle = CC(C)(C)[C@@H](N)C(=O)O; NMeL = CN[C@@H](CC(C)C)C(=O)O; X3 = O=C(Cc1c[nH]c2ccccc12)*; Orn = NCCC[C@H](N)C(=O)O; PhAc = O=C(Cc1ccccc1)*; Sar = CNCC(=O)O

Key:
[1] = molecular target: T1, endothelin receptor A (ETA) (Sus scrofa, UniProt Q29010); experiment: Assay of Affinity for Receptor (1): Binding Activity on ETA Receptor; set-up: key to Binding Activity on ET Receptor (R. act.) ETA: relative binding activity; reference cyclic pentapeptide = 1.0; conditions: specific activity, binding activity of cyclo[-D-Glu-Ala-D-aIle-Leu-D-Trp-] taken as 1.0; porcine heart membrane fraction, 125I-labeled endothelin-1, 25° C., 1 hour
T1 construct: A membrane fraction prepared from the porcine heart; from tissue; host or cells: porcine heart membrane fraction
T1 sequence (Q29010 21-427): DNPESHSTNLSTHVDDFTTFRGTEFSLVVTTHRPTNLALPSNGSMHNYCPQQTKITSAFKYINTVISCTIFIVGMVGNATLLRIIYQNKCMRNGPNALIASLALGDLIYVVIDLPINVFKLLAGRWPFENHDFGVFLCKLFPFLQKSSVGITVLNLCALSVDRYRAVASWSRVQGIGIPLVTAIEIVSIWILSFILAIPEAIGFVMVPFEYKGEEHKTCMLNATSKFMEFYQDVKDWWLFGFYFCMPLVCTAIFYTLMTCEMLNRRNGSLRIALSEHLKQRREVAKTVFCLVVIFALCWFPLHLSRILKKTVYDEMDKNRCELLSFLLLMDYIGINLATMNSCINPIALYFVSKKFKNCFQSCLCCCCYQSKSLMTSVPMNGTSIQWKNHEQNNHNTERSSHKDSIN
Procedure: Assay of Affinity for Receptor (1) . . . Binding Activity on ETA Receptor
A membrane fraction prepared from the porcine heart was diluted to 0.15 mg/ml by using a buffer solution for assay, and 100 μl of the resulting suspension of the membrane fraction was poured into each assay tube to use for assay. To this suspension of the membrane fraction was added 2 μl of 5 nM ^125 I-labeled endothelin-1 solution. Further, 3 μl of a test peptide solution was added thereto, followed by incubation at a temperature of 25° C. for 1 hour. Then, the resulting suspension was diluted with 900 μl of the buffer solution for assay cooled with ice, and thereafter separated into a supernatant and a precipitate by centrifugation at 12,000×g for 10 minutes. Cell membranes and an endothelin receptor A (ETA) embedded therein were contained in the precipitate, and radioactive iodine-labeled endothelin combined with the receptor was also recovered in the precipitate. Accordingly, the amount of radioactive iodine-labeled endothelin combined with the endothelin receptor A (ETA) was determined by measuring the amount of radioactive iodine contained in the precipitate with a gamma-ray counter. The cyclic pentapeptide described in Japanese Patent Application No. 2-413828/1990, cyclo[-D-Glu-Ala-D-aIle-Leu-D-Trp-], was used as a control compound. The numerical value of ETA shown in Table 1 is the value of specific activity, taking the binding activity of this cyclic pentapeptide on the receptor A as 1.0. The binding activity (IC50) of this cyclic pentapeptide on the ETA receptor is 2×10^-6 M.

[2] = system: ETB receptor (guinea pig kidney crude receptor membrane fraction); experiment: ETB Radio Receptor Assay *2; format: binding; conditions: relative activity (Example 8 given as 100), 125I-endothelin-1, 37° C., 90 minutes
Procedure: ETB Radio Receptor Assay *2
In the endothelin radio receptor assay, guinea pigs' kidneys were used. Guinea pigs (Std Hartrey, male 250 g, Japan SLC Ltd.) were made to have a cerebral concussion and sacrificed by bleeding from carotid arteries to pick up the kidneys and removed fat therefrom to prepare the kidneys. The obtained kidneys were sliced and homogenized by politron homogenizer in 20 ml of 50 mM Tris-HCl buffer [pH 7.4; 20 mM NaHCO3, 0.1 mM PMSF (Phenylmethylsulfonyl Fluoride), 1 mM EDTA (Ethylenediaminetetraacetic acid)] per one kidney. The homogenized kidney was applied to a centrifugation at 1,000×g for 15 minutes and the supernatant was further applied to a centrifugation for 20 minutes at 30,000×g. The resulting precipitate was twice washed with 50 mM Tris-HCl buffer (pH 7.4) containing 0.1 mM PMSF, 1 mM EDTA. The resultant was stored at -80 ° C. as a crude receptor membrane fraction and was used as the suspension in the following buffer when necessary.
740 Bq of ^125 I-endothelin-1 (81.4 TBq/mmol, Du Pont, USA) as a radio ligand, the crude membrane fraction (2.1 μg protein) and samples were added to the following buffer. The reaction was performed at 37° C., for 90 minutes in 0.2 ml of the buffer [50 mM Tris-HCl buffer (pH 7.4) containing 0.1 mM PMSF, 1 mM EDTA, 0.2% bovine serum albumin].
The reaction was stopped by fast filtration on a glass filter (GF/B, Wattman, USA) by Cell Harvestor (290 PHD, Cambridge-Technology, Great Britain), and the filter was three times washed with 50 mM Tris-HCl buffer (pH 7.4). Radio activity remained on the filter was assayed by a gamma counter.

| Binding Activity on ET Receptor (R. act.) ETA [1] | Binding Activity on ET Receptor (R. act.) ET8 *2 [2] | SMILES |
| --- | --- | --- |
| 4.0 | 7.7 | CC(C)C[C@@H]1NC(=O)[C@H](CC(=O)O)NC(=O)[C@@H](CC(=O)O)NC(=O)[C@@H](Cc2c[nH]c3ccccc23)NC(=O)[C@H](CC(C)C)NC(=O)[C@@H](CC(C)C)NC1=O [Example 32, Cyclo[--D--Asp--Asp--Leu--D--Leu--Leu--D--Trp--]] (cyclo(DL[dL]L[dW][dD])) |
| 2.9 | 5.6 | CC(C)C[C@@H]1NC(=O)[C@@H](CC(C)C)NC(=O)[C@H](Cc2c[nH]c3ccccc23)NC(=O)[C@H](CC(=O)O)NC(=O)[C@@H](CC(=O)O)NC(=O)[C@@H](Cc2c[nH]c3ccccc23)NC1=O [Example 33, Cyclo[--D--Asp--Asp--Trp--D--Leu--Leu--D--Trp--]] (cyclo(DW[dL]L[dW][dD])) |
| 8.1 | 75 | CC(C)C[C@@H]1NC(=O)[C@@H](CC(C)C)NC(=O)[C@H](CC(=O)O)NC(=O)CN(C)C(=O)[C@@H](CC(=O)O)NC(=O)[C@@H](Cc2c[nH]c3ccccc23)NC1=O [Example 46, Cyclo[--D--Asp--Sar--Asp--D--Leu--Leu--D--Trp--]] (cyclo(D[dL]L[dW][dD][Sar])) |
| 6.8 | 17 | CC(C)C[C@@H]1NC(=O)[C@@H](CC(C)C)NC(=O)[C@H](CC(=O)O)NC(=O)[C@H](CC(C)C)N(C)C(=O)[C@@H](CC(=O)O)NC(=O)[C@@H](Cc2c[nH]c3ccccc23)NC1=O [Example 47, Cyclo[--D--Asp--N--MeLeu--Asp--D--Leu--Leu--D--Trp--]] (cyclo(D[dL]L[dW][dD][NMeL])) |
| 2.7 | 13 | CC(C)C[C@@H]1NC(=O)[C@@H](CC(C)C)NC(=O)[C@H](CC(=O)O)NC(=O)[C@H](Cc2ccccc2)N(C)C(=O)[C@@H](CC(=O)O)NC(=O)[C@@H](Cc2c[nH]c3ccccc23)NC1=O [Example 48, Cyclo[--D--Asp--N--MePhe--Asp--D--Leu--Leu--D--Trp--]] (cyclo(D[dL]L[dW][dD][NMeF])) |
| 64 | 460 | CC(C)C[C@@H]1NC(=O)[C@@H](C(C)(C)C)NC(=O)[C@H](CC(=O)O)NC(=O)[C@H](Cc2c[nH]c3ccccc23)NC(=O)[C@@H](CC(=O)O)NC(=O)[C@@H](Cc2c[nH]c3ccccc23)NC1=O [Example 53, cyclo[-D-Asp-Trp-Asp-D-tLeu-Leu-D-Trp-]] (cyclo(D[dTle]L[dW][dD]W)) |
| 9.1 | 30 | CC(C)C[C@@H]1NC(=O)[C@@H](CC(C)C)NC(=O)[C@H](CC(=O)O)NC(=O)[C@H](Cc2c[nH]c3ccccc23)N(C)C(=O)[C@@H](CC(=O)O)NC(=O)[C@@H](Cc2c[nH]c3ccccc23)NC1=O [Example 67, Cyclo[--D--Asp--N--MeTrp--Asp--D--Leu--Leu--D--Trp--]] (cyclo(D[dL]L[dW][dD][NMeW])) |
| 15 | 43 | CC(C)C[C@@H]1NC(=O)[C@@H](CC(C)C)NC(=O)[C@H](CC(=O)O)NC(=O)[C@H](Cc2c[nH]cn2)NC(=O)[C@@H](CC(=O)O)NC(=O)[C@@H](Cc2c[nH]c3ccccc23)NC1=O [Example 83, Cyclo[--D--Asp--His--Asp--D--Leu--Leu--D--Trp--]] (cyclo(D[dL]L[dW][dD]H)) |

More lines, now with the values behind:

| SMILES | Binding Activity on ET Receptor (R. act.) ETA [1] | Binding Activity on ET Receptor (R. act.) ET8 *2 [2] |
| --- | --- | --- |
| CC(C)C[C@@H]1NC(=O)[C@@H](CC(C)C)NC(=O)[C@H](CC(=O)O)NC(=O)[C@H](C(C)C)NC(=O)[C@@H](CC(=O)O)NC(=O)[C@@H](Cc2c[nH]c3ccccc23)NC1=O [Example 17, Cyclo[--D--Asp--Val--Asp--D--Leu--Leu--D--Trp--]] (cyclo(D[dL]L[dW][dD]V)) | 3.7 | 22 |
| CC(C)C[C@@H]1NC(=O)[C@@H](CC(C)C)NC(=O)[C@H](CC(=O)O)NC(=O)[C@H](CC(C)C)NC(=O)[C@@H](CC(=O)O)NC(=O)[C@@H](Cc2c[nH]c3ccccc23)NC1=O [Example 18, Cyclo[--D--Asp--Leu--Asp--D--Leu--Leu--D--Trp--]] (cyclo(D[dL]L[dW][dD]L)) | 13 | 2.2 |
| CC(C)C[C@@H]1NC(=O)[C@@H](CC(C)C)NC(=O)[C@H](CC(=O)O)NC(=O)[C@H](Cc2ccccc2)NC(=O)[C@@H](CC(=O)O)NC(=O)[C@@H](Cc2c[nH]c3ccccc23)NC1=O [Example 19, Cyclo[--D--Asp--Phe--Asp--D--Leu--Leu--D--Trp--]] (cyclo(D[dL]L[dW][dD]F)) | 8.3 | 7.1 |
| CC(C)C[C@@H]1NC(=O)[C@@H](CC(C)C)NC(=O)[C@H](CC(=O)O)NC(=O)[C@H]2CCCN2C(=O)[C@@H](CC(=O)O)NC(=O)[C@@H](Cc2c[nH]c3ccccc23)NC1=O [Example 24, Cyclo[--D--Asp--D--Pro--Asp--D--Leu--Leu--D--Trp--]] (cyclo(D[dL]L[dW][dD][dP])) | 1.7 |  |
| CC(C)C[C@@H]1NC(=O)[C@@H](CC(C)C)NC(=O)[C@@H]2CCCN2C(=O)[C@H](CC(=O)O)NC(=O)[C@@H](CC(=O)O)NC(=O)[C@@H](Cc2c[nH]c3ccccc23)NC1=O [Example 30, Cyclo[--D--Asp--Asp--Pro--D--Leu--Leu--D--Trp--]] (cyclo(DP[dL]L[dW][dD])) | 4.4 | 9.1 |
| CC(C)C[C@@H]1NC(=O)[C@@H](CC(C)C)NC(=O)[C@H]2CCCN2C(=O)[C@H](CC(=O)O)NC(=O)[C@@H](CC(=O)O)NC(=O)[C@@H](Cc2c[nH]c3ccccc23)NC1=O [Example 31, Cyclo[--D--Asp--Asp--D--Pro--D--Leu--Leu--D--Trp--]] (cyclo(D[dP][dL]L[dW][dD])) | 2.6 | 1.0 |
| CC(C)C[C@@H]1NC(=O)[C@@H](CC(C)C)NC(=O)[C@H](CC(=O)O)NC(=O)[C@H](CCCNC(=O)Cc2ccccc2)NC(=O)[C@@H](CC(=O)O)NC(=O)[C@@H](Cc2c[nH]c3ccccc23)NC1=O [Example 80, cyclo[-D-Asp-Orn(COCH2 Ph)-AsP-D-Leu-Leu-D-Trp-]] (cyclo(D[dL]L[dW][dD][Orn](PhAc))) | 260 | 380 |
| CC(C)C[C@@H]1NC(=O)[C@@H](CC(C)C)NC(=O)[C@H](CC(=O)O)NC(=O)[C@H](CCCNC(=O)Cc2c[nH]c3ccccc23)NC(=O)[C@@H](CC(=O)O)NC(=O)[C@@H](Cc2c[nH]c3ccccc23)NC1=O [Example 82, cyclo[-D-Asp-Orn(COCH2 -Ind)-Asp-D-Leu-Leu-D-Trp-]] (cyclo(D[dL]L[dW][dD][Orn](X3))) | 240 | 500 |
